Reference: US11548903B2, “Bicyclic thiazine and oxazine derivatives as beta-secretase inhibitors and methods of use” (AMGEN INC., priority 2016, dated 2023)
Like-named read-outs stand apart in the source and are kept apart here.

Experiments:
human recombinant BACE1 = human recombinant BACE1 (Homo sapiens (Human), UniProt P56817); test: In vitro enzymatic BACE1 FRET assay; format: biochemical; conditions: read-out: BACE1 Enzyme IC50
Method: (§1) In Vitro Enzymatic BACE1 and BACE2 FRET (Fluorescence Resonance Energy Transfer) Assays […] These recombinant proteins were further purified using Ni-NTA affinity chromatography (Qiagen). […] The assay was effectively started by the addition of FRET substrate (50 nM) and the combination was incubated for one hour. The FRET assay was terminated by the addition of tris buffer, which raised the pH to neutrality, and the fluorescence was determined. The FRET substrate was a peptide with commercially available fluorophore and quencher, on opposite sides of the BACE cleavage site. The specific FRET substrate used in this assay was made by Amgen in-house. Commercially available FRET substrates, for example, the FRET substrate offered with the BACE1 FRET Assay Kit sold by ThermoFisher Scientific (Catalog Number P2985), may be used in this assay with the appropriate modifications, which are within the purview of the ability of a person with ordinary skill in the art. Proteolytic cleavage of the FRET substrate released quenching of fluorescence (excitation 488 nm and emission 590 nm).

human recombinant BACE2 = human recombinant BACE2 (Homo sapiens (Human), UniProt Q9Y5Z0); test: In vitro enzymatic BACE2 FRET assay; format: biochemical; conditions: read-out: BACE2 Enzyme IC50
Method: as §1

Recombinant CatD = Recombinant CatD (Homo sapiens (Human), UniProt P07339); test: In vitro enzymatic Cathepsin D (CatD) FRET assay; format: biochemical; conditions: read-out: Cat D Enzyme IC50
Method: In Vitro Enzymatic Cathepsin D (CatD) FRET Assay Recombinant CatD was expressed in CHO cells. The assay buffer for CatD was 0.05 M citrate pH 3.5, 10% DMSO final, 5 mM CHAPS. […] The assays was effectively started by the addition of different FRET substrates (20 nM for CatD) and the combination was incubated for one hour. The FRET assay was terminated with by addition of tris buffer, which raises the pH to neutrality, and the fluorescence was determined. The FRET substrate was a peptide with commercially available fluorophore and quencher, on opposite sides of the CatD cleavage site. The CatD substrate peptide sequence was based on sequence #1 of Table 1 from Gulnik et al., FEBS Lett. 413(2):379-384 (1997). Proteolytic cleavage of the FRET substrate released quenching of fluorescence (CatD excitation 500 nm and emission 580 nm). The in vitro CatD FRET assay data for each of the Examples is provided in Table 2, conducted by the first procedure described above. […] Thus, with this surprising selectivity profile, the compounds provided herein are believed to minimize, reduce or completely eliminate any risk of retinal atrophy and abnormal development of the eye and of the retinal pigmented epithelium as it relates to the normal function and activity of CatD.

[1] = system: BACE1 (Aβ40 from cells stably expressing Amyloid Precursor Protein); test: In vitro BACE1 cell-based assay (Aβ40 in conditioned medium, HTRF)
Method: In Vitro BACE1 Cell-Based Assay The cell-based assay measures inhibition or reduction of Aβ40 in conditioned medium of test compound treated cells expressing amyloid precursor protein. Cells stably expressing Amyloid Precursor Protein (APP) were plated at a density of 45K cells/well in 384 well plates (Corning/BioCoat 354663). The test compounds were then added to cells in 22-point dose response concentrations with the starting concentration being 62.5 μM. The compounds were diluted from stock solutions in DMSO and the final DMSO concentration of the test compounds on cells was 0.625%. The cells were cultivated overnight at 37° C. and 5% CO2 in DMEM supplemented with 10% FBS. After 24 h of incubation with the test compounds, the conditioned media was collected and the Aβ40 levels were determined using HTRF (Homogeneous Time Resolved Fluorescence). […] The HTRF to detect Aβ40 was performed in 384 well plates (Costar 3658). The antibody pair that were used to detect Aβ 40 from cell supernatants were ConfAb40 antibody (Amgen in-house) and biotinylated 6E10 (BIOLEGEND). As an alternative to ConfAb40, a commercially available antibody, Anti-beta Amyloid 1-40 antibody [BDI350] from Abcam, Cambridge, Mass. 02139-1517 (Product code: ab20068), may be used in this assay. […] The conditioned media was incubated with above antibodies and Streptavidin Allophycocyanin Conjugate for 30-60 minutes at 23° C. The final readout was performed on Envision from PerkinElmer.

[2] = Aβ40, 24 h incubation, read-out: BACE1 Cell IC50

Sequence of human recombinant BACE1 (P56817 46-501): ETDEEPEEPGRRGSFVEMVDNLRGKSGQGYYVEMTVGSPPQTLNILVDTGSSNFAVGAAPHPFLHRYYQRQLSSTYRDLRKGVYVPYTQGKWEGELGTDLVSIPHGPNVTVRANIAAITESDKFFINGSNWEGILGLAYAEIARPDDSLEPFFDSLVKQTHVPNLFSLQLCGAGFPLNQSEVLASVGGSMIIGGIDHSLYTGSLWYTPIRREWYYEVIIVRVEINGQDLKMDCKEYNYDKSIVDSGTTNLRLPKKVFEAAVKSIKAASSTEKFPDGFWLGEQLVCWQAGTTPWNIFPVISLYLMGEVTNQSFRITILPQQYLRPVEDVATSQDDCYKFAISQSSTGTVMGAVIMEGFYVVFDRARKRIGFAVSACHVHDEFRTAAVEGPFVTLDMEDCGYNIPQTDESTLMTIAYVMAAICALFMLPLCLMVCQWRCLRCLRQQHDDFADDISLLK
Sequence of human recombinant BACE2 (Q9Y5Z0 63-518): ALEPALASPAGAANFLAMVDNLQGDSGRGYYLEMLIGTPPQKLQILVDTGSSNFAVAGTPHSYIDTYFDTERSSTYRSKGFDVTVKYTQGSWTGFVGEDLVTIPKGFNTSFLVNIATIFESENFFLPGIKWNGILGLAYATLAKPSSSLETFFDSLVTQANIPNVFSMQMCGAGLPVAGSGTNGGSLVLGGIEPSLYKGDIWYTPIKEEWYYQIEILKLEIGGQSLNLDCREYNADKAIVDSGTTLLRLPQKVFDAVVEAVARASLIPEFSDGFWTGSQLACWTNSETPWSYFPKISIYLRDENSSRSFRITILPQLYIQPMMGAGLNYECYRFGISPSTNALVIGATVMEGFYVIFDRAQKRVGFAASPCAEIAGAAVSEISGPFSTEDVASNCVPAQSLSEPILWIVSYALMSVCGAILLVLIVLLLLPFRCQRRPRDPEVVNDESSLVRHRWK
Sequence of Recombinant CatD (P07339 65-412): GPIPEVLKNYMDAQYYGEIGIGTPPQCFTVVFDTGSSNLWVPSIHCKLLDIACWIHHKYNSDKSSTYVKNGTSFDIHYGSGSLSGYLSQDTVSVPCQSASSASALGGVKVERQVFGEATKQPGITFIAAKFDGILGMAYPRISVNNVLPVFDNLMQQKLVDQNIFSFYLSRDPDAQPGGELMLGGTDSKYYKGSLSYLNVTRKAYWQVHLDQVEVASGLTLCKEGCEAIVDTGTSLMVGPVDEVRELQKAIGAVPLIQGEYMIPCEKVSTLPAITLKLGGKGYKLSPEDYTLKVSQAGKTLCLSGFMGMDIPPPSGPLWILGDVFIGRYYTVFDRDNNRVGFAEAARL

Structure (SMILES)	IC50 (human recombinant BACE1)	IC50 (human recombinant BACE2)	IC50 (Recombinant CatD)	IC50 [1, 2]	IC50 ([1]; 24 h, read-out: BACE1 Cell IC50 (μM))
N#Cc1ccc(/C(F)=C/c2ccc(F)c([C@@]34CO[C@@H](C(F)(F)F)[C@@H]3COC(N)=N4)c2)nc1 (racemic) [Example 141, 6-((Z)-2-(3-((4aR,5S,7aS)-2-amino-5-(trifluoromethyl)-4a,5,7,7a-tetrahydro-4H-furo[3,4-d][1,3]oxazin-7a-yl)-4-fluorophenyl)-1-fluorovinyl)nicotinonitrile and 6-((Z)-2-(3-((4aS,5R,7aR)-2-amino-5-(trifluoromethyl)-4a,5,7,7a-tetrahydro-4H-furo[3,4-d][1,3]oxazin-7a-yl)-4-fluorophenyl)-1-fluorovinyl)nicotinonitrile]	86.2 nM	9720 nM	237 µM	0.161 µM	–
N#Cc1ccc(/C(F)=C/c2ccc(F)c([C@]34CO[C@H](C(F)(F)F)[C@H]3COC(N)=N4)c2)nc1 (single isomer, unassigned) [Example 142]	37.2 nM	3540 nM	> 400 µM	0.0588 µM	–
N#Cc1ccc(/C(F)=C/c2ccc(F)c([C@@]34CO[C@@H](C(F)(F)F)[C@@H]3COC(N)=N4)c2)nc1 (single isomer, unassigned) [Example 143]	9010 nM	140000 nM	95.6 µM	53.5 µM	–
C#CCOc1cnc(/C(F)=C/c2ccc(F)c([C@]34CN(c5ncc(F)cn5)C[C@H]3CSC(N)=N4)c2)cn1 (stereo in doubt) [Example 109, (4aR,7aS)-7a-(2-fluoro-5-((Z)-2-fluoro-2-(5-(prop-2-yn-1-yloxy)pyrazin-2-yl)vinyl)phenyl)-6-(5-fluoropyrimidin-2-yl)-4,4a,5,6,7,7a-hexahydropyrrolo[3,4-d][1,3]thiazin-2-amine]	0.149 nM	5.49 nM	7.6 µM	0.000311 µM	–
Cc1noc(COc2cnc(/C(F)=C/c3ccc(F)c([C@]45CN(c6ncc(F)cn6)C[C@H]4CSC(N)=N5)c3)cn2)n1 (stereo in doubt) [Example 110, (4aR,7aS)-7a-(2-fluoro-5-((Z)-2-fluoro-2-(5-((3-methyl-1,2,4-oxadiazol-5-yl)methoxy)pyrazin-2-yl)vinyl)phenyl)-6-(5-fluoropyrimidin-2-yl)-4,4a,5,6,7,7a-hexahydropyrrolo[3,4-d][1,3]thiazin-2-amine]	1.56 nM	85.5 nM	4.5 µM	0.00411 µM	–
NC1=N[C@]2(c3cc(/C=C(\F)c4ccc(Cl)cn4)ccc3F)CN(c3ncc(F)cn3)C[C@@H]2CS1 [Example 100, (4aS,7aR)-7a-(5-((Z)-2-(5-chloropyridin-2-yl)-2-fluorovinyl)-2-fluorophenyl)-6-(5-fluoropyrimidin-2-yl)-4,4a,5,6,7,7a-hexahydropyrrolo[3,4-d][1,3]thiazin-2-amine]	847 nM	495 nM	544 µM	–	1.25 µM
NC1=N[C@@]2(c3cc(/C=C(\F)c4ccc(Cl)cn4)ccc3F)CN(c3ncc(F)cn3)C[C@H]2CS1 [Example 101, (4aR,7aS)-7a-(5-((Z)-2-(5-chloropyridin-2-yl)-2-fluorovinyl)-2-fluorophenyl)-6-(5-fluoropyrimidin-2-yl)-4,4a,5,6,7,7a-hexahydropyrrolo[3,4-d][1,3]thiazin-2-amine]	1.84 nM	1.03 nM	49.1 µM	0.00194 µM	–
N#Cc1ccc(/C(F)=C/c2ccc(F)c([C@]34CN(c5ncc(F)cn5)C[C@H]3CSC(N)=N4)c2)nc1 [Example 102, 6-((Z)-2-(3-((4aR,7aS)-2-amino-6-(5-fluoropyrimidin-2-yl)-4,4a,5,6,7,7a-hexahydropyrrolo[3,4-d][1,3]thiazin-7a-yl)-4-fluorophenyl)-1-fluorovinyl)nicotinonitrile]	0.241 nM	3.08 nM	118 µM	0.000682 µM	–
N#Cc1ccc(/C(F)=C/c2ccc(F)c([C@@]34CN(c5ncc(F)cn5)C[C@@H]3CSC(N)=N4)c2)nc1 [Example 103, 6-((Z)-2-(3-((4aS,7aR)-2-amino-6-(5-fluoropyrimidin-2-yl)-4,4a,5,6,7,7a-hexahydropyrrolo[3,4-d][1,3]thiazin-7a-yl)-4-fluorophenyl)-1-fluorovinyl)nicotinonitrile]	1.86 nM	27.2 nM	246 µM	0.00545 µM	–
NC1=N[C@]2(c3cc(/C=C(\F)c4ccc(Cl)cn4)ccc3F)COC[C@@H]2CS1 [Example 104, (4aR,7aR)-7a-(5-((Z)-2-(5-chloropyridin-2-yl)-2-fluorovinyl)-2-fluorophenyl)-4a,5,7,7a-tetrahydro-4H-furo[3,4-d][1,3]thiazin-2-amine]	804 nM	7480 nM	654 µM	2.26 µM	–
NC1=N[C@@]2(c3cc(/C=C(\F)c4ccc(Cl)cn4)ccc3F)COC[C@H]2CS1 [Example 105, (4aS,7aS)-7a-(5-((Z)-2-(5-chloropyridin-2-yl)-2-fluorovinyl)-2-fluorophenyl)-4a,5,7,7a-tetrahydro-4H-furo[3,4-d][1,3]thiazin-2-amine]	64.4 nM	56.9 nM	181 µM	0.129 µM	–
N#Cc1ccc(/C(F)=C/c2ccc(F)c([C@@]34COC[C@@H]3CSC(N)=N4)c2)nc1 [Example 106, 6-((Z)-2-(3-((4aR,7aR)-2-amino-4a,5,7,7a-tetrahydro-4H-furo[3,4-d][1,3]thiazin-7a-yl)-4-fluorophenyl)-1-fluorovinyl)nicotinonitrile]	502 nM	6390 nM	815 µM	0.985 µM	–
N#Cc1ccc(/C(F)=C/c2ccc(F)c([C@]34COC[C@H]3CSC(N)=N4)c2)nc1 [Example 107, 6-((Z)-2-(3-((4aS,7aS)-2-amino-4a,5,7,7a-tetrahydro-4H-furo[3,4-d][1,3]thiazin-7a-yl)-4-fluorophenyl)-1-fluorovinyl)nicotinonitrile]	11.7 nM	279 nM	> 400 µM	0.041 µM	–
COc1cnc(/C(F)=C/c2ccc(F)c([C@]34CN(c5ncc(F)cn5)C[C@H]3CSC(N)=N4)c2)cn1 [Example 108, (4aR,7aS)-7a-(2-fluoro-5-((Z)-2-fluoro-2-(5-methoxypyrazin-2-yl)vinyl)phenyl)-6-(5-fluoropyrimidin-2-yl)-4,4a,5,6,7,7a-hexahydropyrrolo[3,4-d][1,3]thiazin-2-amine]	2.71 nM	34 nM	14.8 µM	0.016 µM	–
N#Cc1cnc(/C(F)=C/c2ccc(F)c([C@]34CN(c5ncc(F)cn5)C[C@H]3CSC(N)=N4)c2)cn1 [Example 111, 5-((Z)-2-(3-((4aR,7aS)-2-amino-6-(5-fluoropyrimidin-2-yl)-4,4a,5,6,7,7a-hexahydropyrrolo[3,4-d][1,3]thiazin-7a-yl)-4-fluorophenyl)-1-fluorovinyl)pyrazine-2-carbonitrile]	0.32 nM	5.18 nM	19.6 µM	0.000807 µM	–
